Target: human TRPA1 (Homo sapiens (Human), UniProt O75762)
Assay: hTRPA1 CHO Ca2+ AUC EVO (IC50); FLIPR Tetra block of cinnamaldehyde induced calcium influx
Assay type: cell-based
Conditions: CHO cells expressing TRPA1, 75 uM cinnamaldehyde agonist
Protocol: IC50 values ([…]) of compounds on the human and rat TRPA1 channels were determined using a FLIPR Tetra instrument. CHO cells expressing TRPA1 were plated into 384-well plates, incubated overnight at 37 C, and loaded with BD calcium indicator dye for 1 hr at 37° C. followed by 15 minutes. at room temperature. The assay buffer was Hank's Balanced Salt Solution (HBSS) containing 20 mM HEPES (pH readjusted to 7.4) along with 0.02% BSA.
Following dye load and plate cool down, compounds were added to the cells using FLIPR Tetra. Plates were then incubated with compounds for 20 minutes at room temperature prior to adding agonist. Following this incubation, ˜EC80 concentration of cinnamaldehyde (75 uM for human TRPA1 and 45 uM for rat TRPA1) was added to active the channels and block of cinnamaldehyde induced calcium influx was measured.
IC50 values were fit with a standard Hill function, keeping the Hill coefficient (n) fixed to 1.5. Fixing the Hill coefficient will generally reduce variability of the IC50 determination. The IC50 values were individually examined to make sure the MIN and MAX points were set correctly prior to validation of the results.

human TRPA1, sequence (O75762 whole entry): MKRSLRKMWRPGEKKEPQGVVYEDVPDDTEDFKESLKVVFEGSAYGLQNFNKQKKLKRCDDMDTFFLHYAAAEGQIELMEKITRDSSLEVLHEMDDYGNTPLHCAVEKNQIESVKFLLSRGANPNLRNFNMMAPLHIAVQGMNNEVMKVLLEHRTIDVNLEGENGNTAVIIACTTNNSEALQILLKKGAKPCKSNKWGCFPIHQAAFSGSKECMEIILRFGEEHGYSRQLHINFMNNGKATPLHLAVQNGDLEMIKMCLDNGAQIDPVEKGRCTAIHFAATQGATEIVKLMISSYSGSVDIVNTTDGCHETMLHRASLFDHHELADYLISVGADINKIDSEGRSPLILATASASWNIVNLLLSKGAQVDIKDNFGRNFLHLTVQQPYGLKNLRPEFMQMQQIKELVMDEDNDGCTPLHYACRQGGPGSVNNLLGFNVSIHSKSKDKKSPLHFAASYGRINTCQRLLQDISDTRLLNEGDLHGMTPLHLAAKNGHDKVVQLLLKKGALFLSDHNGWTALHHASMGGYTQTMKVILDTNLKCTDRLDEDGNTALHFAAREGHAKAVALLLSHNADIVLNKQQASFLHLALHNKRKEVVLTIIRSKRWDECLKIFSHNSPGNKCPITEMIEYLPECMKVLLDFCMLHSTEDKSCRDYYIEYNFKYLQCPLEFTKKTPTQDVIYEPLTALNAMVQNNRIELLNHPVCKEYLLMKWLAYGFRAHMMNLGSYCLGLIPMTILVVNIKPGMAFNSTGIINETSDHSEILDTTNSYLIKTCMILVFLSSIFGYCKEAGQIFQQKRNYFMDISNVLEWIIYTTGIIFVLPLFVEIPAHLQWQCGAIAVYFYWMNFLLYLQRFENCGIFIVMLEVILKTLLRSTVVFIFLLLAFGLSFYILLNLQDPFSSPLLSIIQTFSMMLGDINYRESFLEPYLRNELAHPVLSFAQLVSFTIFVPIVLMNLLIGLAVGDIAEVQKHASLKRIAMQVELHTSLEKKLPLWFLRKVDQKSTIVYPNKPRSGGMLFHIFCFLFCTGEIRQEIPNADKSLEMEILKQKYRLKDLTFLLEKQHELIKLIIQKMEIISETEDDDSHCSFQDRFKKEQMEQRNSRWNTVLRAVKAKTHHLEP

Compound | IC50 (Table 3) | IC50 (Table 1)
O=C(NCc1cn(-c2ccc(C(F)(F)F)nc2)nc1C(F)(F)F)[C@@H]1CCC[C@@H]1S(=O)(=O)c1ccc(F)cc1 [Example 4, (1S,2S)-2-[(4-fluorobenzene)sulfonyl]-N-[[3-(trifluoromethyl)-1-[6-(trifluoromethyl)pyridin-3-yl]-1H-pyrazol-4-yl]methyl]cyclopentane-1-carboxamide] | 0.0218 µM | –
O=C(Cc1cn(-c2cnc(C(F)(F)F)nc2)nc1C1CC1)N[C@@H]1CC[C@@H]1S(=O)(=O)c1ccc(F)cc1 [Example 6, 2-(3-cyclopropyl-1-(2-(trifluoromethyl)pyrimidin-5-yl)-1H-pyrazol-4-yl)-N-((1R,2S)-2-(4-fluorophenylsulfonyl)cyclobutyl)acetamide] | 0.0469 µM | 0.0469 µM
O=C(Cc1cn(-c2cnc(C(F)(F)F)nc2)nc1Cl)N[C@@H]1CC[C@@H]1S(=O)(=O)c1ccc(F)cc1 [Example 7, 2-(3-chloro-1-(2-(trifluoromethyl)pyrimidin-5-yl)-1H-pyrazol-4-yl)-N-((1R,2S)-2-(4-fluorophenylsulfonyl)cyclobutyl) acetamide] | 0.0403 µM | 0.0403 µM
O=C(Cc1cn(-c2cnc(C(F)(F)F)nc2)nc1C(F)F)N[C@@H]1CC[C@@H]1S(=O)(=O)c1ccc(F)cc1 [Example 9, 2-(3-(difluoromethyl)-1-(2-(trifluoromethyl)pyrimidin-5-yl)-1H-pyrazol-4-yl)-N-((1R,2S)-2-(4-fluorophenylsulfonyl)cyclobutyl)acetamide] | 0.0352 µM | 0.0352 µM
COc1nn(-c2ccc(C(F)F)cc2)cc1CC(=O)N[C@@H]1CC[C@@H]1S(=O)(=O)c1ccc(F)cc1 [Example 10, 2-(1-(4-(difluoromethyl)phenyl)-3-methoxy-1H-pyrazol-4-yl)-N-((1R,2S)-2-(4-fluorophenylsulfonyl)cyclobutyl) acetamide] | 0.0436 µM | –
COc1nn(-c2ccc(C(F)(F)F)nc2)cc1CC(=O)N[C@@H]1CC[C@@H]1S(=O)(=O)c1ccc(F)cc1 [Example 13, N-((1R,2S)-2-((4-fluorophenyl)sulfonyl)cyclobutyl)-2-(3-methoxy-1-(6-(trifluoromethyl)pyridin-3-yl)-1H-pyrazol-4-yl)acetamide] | 0.0185 µM | 0.0185 µM
COc1nn(-c2ccc(C(F)(F)F)cc2)cc1CC(=O)N[C@@H]1CC[C@@H]1S(=O)(=O)c1ccc(F)cc1 [Example 14, N-((1R,2S)-2-((4-fluorophenyl)sulfonyl)cyclobutyl)-2-(3-methoxy-1-(4-(trifluoromethyl)phenyl)-1H-pyrazol-4-yl)acetamide] | 0.0052 µM | 0.0052 µM
O=C(NCc1cc(-c2ccc(C(F)(F)F)nc2)ncc1Cl)[C@@H]1CC[C@@H]1S(=O)(=O)c1ccc(F)cc1 [Example 15] | 0.14 µM | –
O=C(NCc1cn(-c2cnc(C(F)(F)F)nc2)nc1C(F)F)[C@@H]1CC[C@@H]1S(=O)(=O)c1ccc(F)cc1 [Example 16, (1S,2S)-N-((3-(difluoromethyl)-1-(2-(trifluoromethyl)pyrimidin-5-yl)-1H-pyrazol-4-yl)methyl)-2-(4-fluorophenylsulfonyl) cyclobutanecarboxamide] | 0.162 µM | –
O=C(NCc1cn(-c2ccc(C(F)(F)F)cc2)nc1C(F)F)[C@@H]1CC[C@@H]1S(=O)(=O)c1ccc(F)cc1 [Example 17, (1S,2S)-N-((3-(difluoromethyl)-1-(4-(trifluoromethyl)phenyl)-1H-pyrazol-4-yl)methyl)-2-(4-fluorophenylsulfonyl) cyclobutanecarboxamide] | 0.0242 µM | –
O=C(NCc1ccc(F)c(-c2cnc(C(F)(F)F)nc2)c1)[C@@H]1CC[C@@H]1S(=O)(=O)c1ccc(F)cc1 [Example 19, (1S,2S)-2-(4-fluorophenyl)sulfonyl-N-[[4-fluoro-3-[2-(trifluoromethyl)pyrimidin-5-yl]phenyl]methyl] cyclobutanecarboxamide] | 0.159 µM | –

— patent US10766878B2, “Sulfonylcycloalkyl carboxamide compounds” (Genentech, Inc., priority 2017, dated 2020)
